This is an account of results in PMC8805583, “Discovery of Herbacetin as a Novel SGK1 Inhibitor to Alleviate Myocardial Hypertrophy” (Advanced Science, 2021).

Holding throughout (type): biochemical
The target of assay [1] is T1, SGK3 (Homo sapiens, UniProt Q96BR1).
T1 construct: purchased Eurofins Discovery (KinaseProfiler Service)
T1 sequence (Q96BR1 1-496): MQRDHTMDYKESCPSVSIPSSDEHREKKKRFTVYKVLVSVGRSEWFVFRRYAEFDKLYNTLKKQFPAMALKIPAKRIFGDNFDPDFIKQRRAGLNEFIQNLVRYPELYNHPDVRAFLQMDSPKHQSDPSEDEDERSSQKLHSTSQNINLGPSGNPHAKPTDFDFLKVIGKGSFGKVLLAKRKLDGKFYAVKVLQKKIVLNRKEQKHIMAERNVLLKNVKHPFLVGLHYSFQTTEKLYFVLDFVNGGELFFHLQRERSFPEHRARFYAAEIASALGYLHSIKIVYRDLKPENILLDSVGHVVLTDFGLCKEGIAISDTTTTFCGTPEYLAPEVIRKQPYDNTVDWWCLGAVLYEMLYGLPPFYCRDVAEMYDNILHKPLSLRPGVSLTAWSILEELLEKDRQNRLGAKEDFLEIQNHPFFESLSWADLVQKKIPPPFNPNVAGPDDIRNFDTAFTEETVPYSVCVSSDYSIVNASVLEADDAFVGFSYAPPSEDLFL
The assay can be described thus: KinaseProfiler Assay, AGC kinase panel. The note with it: HBT 10 µmol; normalized by positive inhibitors. An excerpt: (§1) 20 structurally related flavonoids of HBT were collected, which differ in the number and position of —OH groups, and examined for their effects on SGK1 activity. Based on the docking prediction, the —OH group at the C‐4’ position of HBT was required for the interaction with the key SGK1 residue D177. Therefore, the 20 flavonoids were divided into two classes according to the presence or absence of an —OH group at C‐4’ (Figure 4B). At both tested concentrations, flavonoids with an —OH group at C‐4’ (class A) inhibited SGK1 more than those without an —OH group at C‐4’ (class B) (Figure 4C). The IC50 of each compound is listed in Figure 4D; and Figure S6 (Supporting Information). […] Conversely, the absence of an ‐OH group at C‐8 led to a greater than 10‐fold reduction in flavonoid SGK1 inhibitory activity, as shown by the performance of A1 or A4. […] The inhibitory activity of HBT (10 µmol) against 28 human AGC kinases was tested by KinaseProfiler Assay (Eurofins Discovery). The percentage of HBT's inhibitory activity against each kinase was normalized by the respective positive inhibitors of AGC kinases.
(§2) The initial crystal structures of SGK1 (PDB entry: 3HDN, 3HDM, and 2R5T) were obtained from the Protein Data Bank (PDB). The prepared inhibitors were then docked by Glide with the extra precision (XP) scoring mode to estimate the binding affinity for each protein–ligand complex. The detailed process of docking has been described previously.^[ [46] ^] HEK293T cells were transfected with SGK1 mutant plasmids. After 24 h, cells were lysed and immunoprecipitated with anti‐FLAG antibody and beads. Immune complexes were washed with kinase buffer and incubated in kinase buffer with substrate peptide for 1 h at 30 ℃ followed by LC/MS measurement as described above. KINOMEscan Profiling Service and KinaseProfiler Service Assay were provided by Eurofins Discovery.

In assay [2] the target is T2, G protein-coupled receptor kinase 3 (GRK3) (Homo sapiens, UniProt P35626).
T2 construct: purchased Eurofins Discovery (KinaseProfiler Service)
T2 sequence (P35626 1-688): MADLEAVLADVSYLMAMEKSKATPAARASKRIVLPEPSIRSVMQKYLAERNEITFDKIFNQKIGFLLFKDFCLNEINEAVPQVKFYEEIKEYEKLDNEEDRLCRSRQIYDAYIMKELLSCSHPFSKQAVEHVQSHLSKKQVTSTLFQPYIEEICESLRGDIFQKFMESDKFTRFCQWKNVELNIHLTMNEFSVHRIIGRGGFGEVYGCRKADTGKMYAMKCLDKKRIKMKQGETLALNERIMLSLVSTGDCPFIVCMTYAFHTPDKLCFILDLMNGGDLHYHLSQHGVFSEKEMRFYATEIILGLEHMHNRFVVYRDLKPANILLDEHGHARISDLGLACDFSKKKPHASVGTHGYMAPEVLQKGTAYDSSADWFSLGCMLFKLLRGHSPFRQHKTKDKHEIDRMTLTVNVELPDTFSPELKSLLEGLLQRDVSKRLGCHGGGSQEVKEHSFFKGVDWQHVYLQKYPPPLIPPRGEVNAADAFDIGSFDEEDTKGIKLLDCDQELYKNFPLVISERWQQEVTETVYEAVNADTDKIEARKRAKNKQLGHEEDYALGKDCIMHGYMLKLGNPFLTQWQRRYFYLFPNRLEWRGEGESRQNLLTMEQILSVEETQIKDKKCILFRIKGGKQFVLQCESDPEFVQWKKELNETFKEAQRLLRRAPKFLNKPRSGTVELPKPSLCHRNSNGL
The assay can be described thus: KinaseProfiler Assay, AGC kinase panel. The note with it: HBT 10 µmol.
From the text: as §1, §2

In assay [3] the target is T3, SGK1 protein with the D177A mutation (Homo sapiens, UniProt O00141, D177A).
T3 construct: host or cells: HEK293T
T3 sequence (O00141 1-431 D177A): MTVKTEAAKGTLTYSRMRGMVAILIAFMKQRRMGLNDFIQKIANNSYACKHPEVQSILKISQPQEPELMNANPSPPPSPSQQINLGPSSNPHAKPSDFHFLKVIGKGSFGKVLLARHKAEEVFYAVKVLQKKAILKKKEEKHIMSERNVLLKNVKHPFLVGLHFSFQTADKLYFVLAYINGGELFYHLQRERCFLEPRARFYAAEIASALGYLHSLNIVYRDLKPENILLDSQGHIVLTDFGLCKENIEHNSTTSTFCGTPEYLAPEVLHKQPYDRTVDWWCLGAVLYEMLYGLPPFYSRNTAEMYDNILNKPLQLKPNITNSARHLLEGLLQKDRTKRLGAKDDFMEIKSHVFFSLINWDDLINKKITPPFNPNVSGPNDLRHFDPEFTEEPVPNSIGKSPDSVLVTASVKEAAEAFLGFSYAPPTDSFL
Description: MS-based kinase inhibitory assay with FLAG-tagged mutated SGK1 immunoprecipitated from HEK293T. To be noted: normalized to WT SGK1.
From the text: To further elaborate the interaction between SGK1 and HBT, the SGK1‐HBT complex was constructed by molecular docking based on the SGK1 crystal structures retrieved from the Protein Data Bank (PDB). […] To explore the impacts of these three residues on the SGK1‐HBT binding, plasmids carrying respective SGK1 mutations (D177A, N227A, and T239A) were designed and transfected in the human embryonic kidney cells (HEK293T). The FLAG‐tagged wild‐type or mutated SGK1 protein lysates were collected by immunoprecipitation and examined for enzymatic activity in the presence of HBT using MS‐based kinase inhibitory assay.
as §2

Entries after “also recorded” stand apart in the source; their conditions may differ.

For the compound `O=c1c(O)c(-c2ccc(O)cc2)oc2c(O)c(O)cc(O)c12` [HBT, herbacetin], in assay [1], the “inhibitory activity on SGK3” value was found to be 77%. In addition, the “inhibitory effect on GRK3” value in assay [2] was “high inhibitory effects”. Also, the “inhibition of D177A-mutated SGK1 by HBT” value in assay [3] is listed as “completely ablates; also recorded: almost completely lost its response”.
